The source of these data is patent US6800285B2 (priority 2000, dated 2004).

Assay [1] concerns SJL/J mice infected with Theiler's murine encephalomyelitis virus. Briefly: Spinal cord demyelination quantitation (lesion load) in TMEV-infected mice. In kind it is in vivo, mouse. As for the experimental part:
(§1) All mice used in the experiments were SJL/J mice (Jackson Laboratories, Bar Harbor, Me.). Six- to eight-week-old mice were intracerebrally injected with 2.0×10^6 pfu of Daniel's strain of Theiler's murine encephalomyelitis virus.
(§2) Areas of spinal cord demyelination (lesion load) and remyelination (73) were determined from multiple cross-sections of plastic-embedded spinal cords, using a camera lucida system and a computerized drawing tablet (39). Briefly, mice were sacrificed by overdose with sodium pentobarbital and perfused by intracardiac puncture with Trumps fixative, containing 4% paraformaldehyde and 1% glutaraldehyde. Spinal cords were removed, post-fixed in osmium textroxide, and sectioned into 1 mm blocks. Every third block (10-12 blocks per spinal cord; cervical to lumbar range) was embedded in Araldite plastic. The embedded tissues were cross-sectioned at 1 μm thickness, and the slides stained with 4% paraphenylenediamine to highlight the myelin sheaths.
Using a camera lucida attached to a Zeiss photomicroscope and a ZIDAS interactive digital analysis system, three parameters were measured from each slide: total white matter area, demyelinated lesion area, and remyelination area. Outline of these regions were traced and the areas calculated by the computerized digital analysis system. Demyelination was expressed as the total lesion area as a percentage of total white matter area. Remyelination was expressed as the total remyelination area as a percentage of the total demyelinated lesion area. The criterion for remyelination by oligodendrocytes was abnormally thin myelin sheaths. All remyelination data refers to oligodendrocyte-mediated remyelination. Occasionally, Schwann-cell mediated remyelination was observed, characterized by abnormally thick myelin sheaths and nuclei juxtaposed to the myelin sheath.
Virus was injected on Day 0.
Chronically infected mice (124-365 days post-infection) were treated subcutaneously for periods of 41-76 days. […] These mice were sacrificed after 65 days. […] The members of this group were sacrificed after 65-76 days. […] Sacrifice of these mice occurred after 41-65 days. The control group of mice received PBS. In all groups, spinal cord demyelination was measured after sacrifice.
Chronically infected mice (160-477 days post-infection) were treated by intraperitoneal injection with antibodies for periods of 36-76 days. One group of mice received Normal antibodies, administered in 10 injections of 0.05 mg each for a total of 0.5 mg over 42 days. […] PBS was administered to the control group of mice. Spinal cord white matter demyelinating pathology was measured post-sacrifice for all mice.
Each mouse received 5 weekly injections for total antibody doses of 0.5 or 1.5 mg (0.1-0.3 mg/injection). After sacrifice, spinal cord demyelination was measured.

The test system is the same in assay [2]. Briefly: Spinal cord remyelination quantitation in TMEV-infected mice. In kind it is in vivo, mouse. How it is done:
as §1
as §2, with “The embedded tissues were cross-sectioned at 1 μm thickness, and the slides stained with 4% paraphenylenediamine to highlight the myelin sheaths.” left out
Using a camera lucida attached to a Zeiss photomicroscope and a ZIDAS interactive digital analysis system, three parameters were measured from each slide: total white matter area, demyelinated lesion area, and remyelination area. Outline of these regions were traced and the areas calculated by the computerized digital analysis system. Demyelination was expressed as the total lesion area as a percentage of total white matter area. Remyelination was expressed as the total remyelination area as a percentage of the total demyelinated lesion area. […]

The test system of assay [3] is TMEV. Briefly: Serum anti-TMEV IgG titers after glatiramer acetate immunization. The class given is in vivo, Theiler's murine encephalomyelitis virus. As to conditions: four weeks after immunization, vs control mice. How it is done:
An indirect ELISA was performed in which serum or a purified antibody was applied to plates that were pre-coated with glatiramer acetate or other protein antigens. The antigen of interest was dissolved in 0.1 M carbonate buffer, pH 9.5, and applied at 1 μg per well in 96-well polystrene plates. Incubation was overnight at 4° C. Plates were then rinsed with PBST (phosphate buffered saline containing 0.05% Tween 20 detergent) and incubated for 1 hr in PBSM (phosphate buffered saline containing 5% defatted milk powder). Plates were rinsed with PBST, then incubated for 4 hr at room temperature with 50×PBS. Plates were rinsed with PBST, then incubated with biotinylated secondary antibodies that were raised in goat. The secondary antibodies, diluted in PBSM 1:50, were specific to mouse IgG or mouse IgM. Incubation was for 2 hr at room temperature. Plates were rinsed in PBST, then PBS. Streptavidin-alkaline phosphatase conjugate diluted in PBS was applied to the plates for 2 hr room temperature. Plates were rinsed with PBST, with a final rinse in water. The colored reaction product was produced by incubation with p-nitrophenyl phosphatase in 0.1 M carbonate buffer plus 1 mM magnesium chloride. The reaction was stopped with 0.5 N sodium hydroxide. […] Optical absorbency was measured at a wavelength of 405 nm.
(§3) Serum titers of antibodies against TMEV and anti-TMEV DTH reactions were measured.

For assay [4], the system named is UV-inactivated TMEV. Briefly: TMEV delayed type hypersensitivity (ear thickness). The class given is in vivo, mouse. As to conditions: immunized mice vs IFA control. How it is done:
Ear thickness was measured prior to injection, and 24 and 48 hr after injection.
as §3

The subject of assay [5] is TMEV. Briefly: TMEV antigen expression (virus antigen-positive cells). In kind it is in vivo, Theiler's murine encephalomyelitis virus. As to conditions: 6-9 wks after high-dose immunization.
A short description of assay [6]: Serum titres of glatiramer acetate IgG after glatiramer acetate immunization (ELISA). In kind it is in vivo, mouse. How it is done:
The antigen of interest was dissolved in 0.1 M carbonate buffer, pH 9.5, and applied at 1 μg per well in 96-well polystrene plates. Incubation was overnight at 4° C. Plates were then rinsed with PBST (phosphate buffered saline containing 0.05% Tween 20 detergent) and incubated for 1 hr in PBSM (phosphate buffered saline containing 5% defatted milk powder). Plates were rinsed with PBST, then incubated for 4 hr at room temperature with 50×PBS. Plates were rinsed with PBST, then incubated with biotinylated secondary antibodies that were raised in goat. The secondary antibodies, diluted in PBSM 1:50, were specific to mouse IgG or mouse IgM. Incubation was for 2 hr at room temperature. Plates were rinsed in PBST, then PBS. Streptavidin-alkaline phosphatase conjugate diluted in PBS was applied to the plates for 2 hr room temperature. Plates were rinsed with PBST, with a final rinse in water. The colored reaction product was produced by incubation with p-nitrophenyl phosphatase in 0.1 M carbonate buffer plus 1 mM magnesium chloride. The reaction was stopped with 0.5 N sodium hydroxide. Antibody isotyping was performed using a detection kit and purified isotype standards from Zymed Laboratories (San Francisco, Calif.). Extrapolation of the concentration of each isotype within the antibody samples was based on the sample dilution that produced the absorbence signal falling within the most linear portion of each standard isotype curve. Optical absorbency was measured at a wavelength of 405 nm.
Antibodies from normal SJL serum (SJL Ig) and commercial, pooled mouse serum (Pooled Ig) were also purifed by Protein A/G chromatography.
Mice were sacrificed on Day 65 post-immunization. […] The secondary antibody was biotinylated anti-mouse IgG.
Serum was isolated from these mice on Day 62. […] Serum was isolated from these mice on Day 41. […] Serum was isolated on Day 76. […] The secondary antibody was biotinylated anti-mouse IgG.
The final passive transfer was on Day 35. After 41 days of treatment, both groups of mice were sacrificed and serum titres of Copolymer IgG was measured by ELISA. The secondary antibody was biotinylated anti-mouse IgG.

Assay [7] concerns lymph node-derived lymphocytes from MBP84-102- and PLP179-191-immunized mice. The experiment in a line: In vitro [3H]-thymidine proliferation of lymph node-derived lymphocytes from myelin peptide-immunized mice. Conditions: Experiment 6A; 53 hours culture. In kind it is cell-based, mouse. How it is done: Two mice were subcutaneously injected in the flanks with MBP 84-102 in complete Fruend's adjuvant (CFA). MBP84-102 was obtained by following the procedure of Hawes et al (24). A method similar to that of Tuohy et al. was employed to produce PLP179-191 (70). PLP179-191 in CFA was subcutaneously injected into the flanks of 1 mouse. […] In the last 13 hours of culture, 1 μCi of [^3H]-thymidine was added and its incorporation measured by scintillation counting of harvested cells.
Mice were subcutaneously injected in the flanks with MBP84-102 (2 mice) peptide in CFA. After 10 days, inguinal and peri-aortic lymph nodes were removed, dissociated, and grown for 74 hours in cultures in medium alone or with additional additives as shown in FIG. 17. In the last 12 hours of culture, 1 μCi of [^3H]-thymidine was added and its incorporation measured by scintillation counting of harvested cells.

Assay [8] relates to multiple sclerosis. As to conditions: daily subcutaneous injections, 20 mg/injection; cited from earlier work.
Assay [9] concerns experimental autoimmune encephalomyelitis (EAE). Conditions: unlike MBP; cited from earlier work.

Take “L-glutamic acid polymer with L-alanine, L-lysine and L-tyrosine, acetate (salt) [glatiramer acetate]”: the “effect on extent of demyelination” value in [1] (early disease, 45 days post-infection, 0.1 mg/injection, 60 days of treatment) is recorded as “no statistically significant effect”; in assay [1] (late disease, low doses (0.1 mg/injection), alone or with adjuvant) it was “did not alter the extent of demyelination”. Further, the “effect on demyelinating lesions” value in assay [1] (late disease, high dose (5 mg glatiramer acetate/IFA, 1-2 injections), vs PBS) is given as “expansion of the demyelinating lesions”. Further, the “white matter demyelinated (mean lesion load)” value was determined as 20% in assay [1] (late disease, high dose of glatiramer acetate) and 10% in assay [1] (late disease, low-dose glatiramer acetate). In [2] (Example 8, infected 6 months or longer, glatiramer acetate 0.1 mg/injection or antibodies 1.5 mg total), the “remyelination of lesions (pathology)” value is “not more extensive than following the PBS treatment”. In addition, in assay [2] (late disease, s.c. treatment as Experiment 2A, alone or with IFA), the “effect on extent of oligodendrocyte-mediated remyelination” value was “did not affect the extent of oligodendrocyre-mediated remyelination”. Further, in [3], the “anti-TMEV titers (total IgG, IgG1, IgG2a)” value is “reduced”. Besides, in assay [4], the “anti-TMEV DTH reactions” value is “reduced”. Further, in assay [5], the “virus expression (virus antigen-positive cells)” value is “tended to be higher”. In addition, the “highest antibody titer reached” value in assay [6] (chronically diseased mice immunized with 5 mg) is 1.2 mg/mL. The “dose dependence of production of antibodies against glatiramer acetate” value in assay [6] (chronically diseased mice, 0.1 vs 5 mg injections) is “highly dose-dependent”. In addition, the “influence of dose (0.1-1.0 mg) and injection timing on glatiramer acetate IgG titres” value in [6] (non-infected immunized mice) was “did not significantly influence glatiramer acetate IgG titres”. The “time required to achieve high antibody titres” value in assay [6] (non-infected immunized mice) is “Approximately 3 weeks”. Besides, in assay [7], the lymphocyte proliferation entry is reported as “did not induce significant proliferation”. Further, the “clinical effect in multiple sclerosis” value in assay [8] was “reduce relapse rates, appearance of new lesions by magnetic resonance imaging (MRI), and progression of disability”. Also, the “effect on EAE” value in assay [9] was “inhibits rather than induces”.
